Patent publication US8148117B2, “Microorganism and process for the preparation of L-methionine” (Evonik Degussa GmbH, priority 2005, dated 2012)
Read-outs that look alike come from different tables or passages of the source.

Tests used:
MetC [1] = biological target: T1, MetC (Corynebacterium glutamicum, UniProt Q93QC6); assay type: biochemical; settings: for Cleavage by MetC: MetC added to MetB assay products after MetB removal, HPLC and photometric SH-group assay
T1 construct: His-Tag (N); made in house; host or cells: Escherichia coli
T1 sequence (Q93QC6 1-368): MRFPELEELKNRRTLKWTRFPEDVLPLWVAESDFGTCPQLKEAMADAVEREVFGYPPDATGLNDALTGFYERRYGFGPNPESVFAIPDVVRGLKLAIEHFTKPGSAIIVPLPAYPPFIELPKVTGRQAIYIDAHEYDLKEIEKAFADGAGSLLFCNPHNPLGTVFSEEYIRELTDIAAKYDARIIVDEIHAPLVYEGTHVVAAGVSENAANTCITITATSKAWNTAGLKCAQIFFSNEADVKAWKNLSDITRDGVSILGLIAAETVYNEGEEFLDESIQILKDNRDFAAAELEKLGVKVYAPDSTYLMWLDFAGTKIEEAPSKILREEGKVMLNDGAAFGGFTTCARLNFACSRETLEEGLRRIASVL
Description: (§1) Overexpression and purification of enzymes. MetB and MetC of C. glutamicum were cloned in the vector pQE30 (Qiagen). Expression with this vector comprises the addition of a His-Tag to the N-terminus of the expressed protein. Escherichia coli was transformed with the plasmid and selected by ampicillin resistance (100 μg/mL). Transformed E. coli was cultivated (100 μg/mL ampicillin, 37° C., 230 rpm) on terrific broth (Losen et al., Biotechnol Prog 2004, 204, 1062-8) and induced at an optical density of 1 (600 nm) by addition of 1 mM isopropyl thiogalactoside (final concentration). The cells were harvested by centrifugation (4225 g, 15 min, 2° C.) after 16 h of induced growth, washed and resuspended in phosphate buffer (100 mM, 100 μM pyridoxal phosphate, 1 mg/mL DNAse 1, pH 7.4 at 4° C.) and extracted by sonication (5×15 sec, 20 micron). The crude extracts were separated from cell debris by centrifugation (30 min, 2° C., and 20000 g). […] After the protein was applied to the column, it was washed with 10 vol. of 0.02 M sodium phosphate buffer. Elution was carried out with a linear gradient with 0.02 M sodium phosphate buffer (pH 7.4) containing 0.5 M NaCl and 0.5 M imidazol. The fractions containing the protein were checked for purity with SDS-PAGE and then pooled together. Imidazole was separated from the proteins by ultrafiltration.
In vitro assays of MetB and MetC. Activity of MetB and MetC was followed photometrically (Helios α, Thermo Electronic, Dreieich, Germany). Enzyme activities were measured by increase or decrease of free SH-groups using Ellman's reagent (Extinction at 412 nm) (Ellman and Lysko, 1979). The assay mixtures contained 1.25 mM cysteine or homocysteine and 3 mM O-acetyl homoserine for MetB-assays and 1.25 mM cystathionine or about 1.25 mM homolanthionine for MetC-assays. Homolanthionine was not commercially available. The MetC-assay was therefore carried out using the products of the MetB-assay. MetB was removed by ultrafiltration. Thus, the homolanthionine concentration could not be adjusted in the assays. […]

MetC [2] = biological target: MetC (Escherichia coli, UniProt P06721); settings: Dwivedi et al. 1982, cited from earlier work
Chain of MetC (Escherichia coli, UniProt P06721) (P06721 2-395): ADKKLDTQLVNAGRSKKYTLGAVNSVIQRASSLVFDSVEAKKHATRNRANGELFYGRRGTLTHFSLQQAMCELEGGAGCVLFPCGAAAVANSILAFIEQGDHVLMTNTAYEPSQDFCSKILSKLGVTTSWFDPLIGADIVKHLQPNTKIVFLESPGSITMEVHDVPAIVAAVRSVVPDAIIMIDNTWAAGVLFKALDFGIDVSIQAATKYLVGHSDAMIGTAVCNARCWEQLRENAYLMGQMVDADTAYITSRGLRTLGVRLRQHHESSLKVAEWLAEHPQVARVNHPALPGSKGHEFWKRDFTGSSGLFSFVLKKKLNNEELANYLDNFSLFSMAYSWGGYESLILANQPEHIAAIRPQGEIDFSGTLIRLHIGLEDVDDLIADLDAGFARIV

MetC [3] = biological target: MetC (Salmonella typhimurium, UniProt P18949); settings: read-out: MetC Km; S. thyphimurium MetC; Dwivedi et al. 1982; cited from earlier work
Chain of MetC (Salmonella typhimurium, UniProt P18949) (P18949 whole entry): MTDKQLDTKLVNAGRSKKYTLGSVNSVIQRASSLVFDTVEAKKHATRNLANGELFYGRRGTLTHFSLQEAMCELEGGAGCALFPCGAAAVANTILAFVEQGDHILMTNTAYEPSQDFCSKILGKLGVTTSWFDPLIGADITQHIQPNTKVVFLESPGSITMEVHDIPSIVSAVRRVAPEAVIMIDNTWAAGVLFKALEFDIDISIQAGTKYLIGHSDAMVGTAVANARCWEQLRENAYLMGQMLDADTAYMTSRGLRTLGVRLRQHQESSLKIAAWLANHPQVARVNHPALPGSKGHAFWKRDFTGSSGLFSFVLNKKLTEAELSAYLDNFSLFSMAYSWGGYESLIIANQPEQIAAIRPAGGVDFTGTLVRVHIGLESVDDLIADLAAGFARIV

MetC [4] = biological target: MetC (Bordetella avium, UniProt Q07703); settings: read-out: MetC Km; B. avium MetC; Gentry-Weeks et al. 1993; cited from earlier work
Chain of MetC (Bordetella avium, UniProt Q07703) (Q07703 whole entry): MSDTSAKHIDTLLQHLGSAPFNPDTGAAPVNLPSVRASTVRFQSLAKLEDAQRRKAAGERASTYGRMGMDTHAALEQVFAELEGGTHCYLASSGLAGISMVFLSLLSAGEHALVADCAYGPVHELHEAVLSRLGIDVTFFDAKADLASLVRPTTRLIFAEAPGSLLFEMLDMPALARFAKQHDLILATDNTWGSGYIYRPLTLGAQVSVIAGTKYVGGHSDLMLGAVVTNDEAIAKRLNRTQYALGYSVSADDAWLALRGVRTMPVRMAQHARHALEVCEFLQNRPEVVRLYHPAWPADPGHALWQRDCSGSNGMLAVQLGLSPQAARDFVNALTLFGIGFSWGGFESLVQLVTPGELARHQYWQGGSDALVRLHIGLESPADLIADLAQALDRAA

MetB [5] = biological target: T2, MetB (Corynebacterium glutamicum, UniProt Q79VD9); experiment: In vitro assay of MetB, Km from Lineweaver-Burk plots; assay type: biochemical; settings: C. glutamicum MetB, with O-acetyl homoserine, this study
T2 sequence (Q79VD9 1-386): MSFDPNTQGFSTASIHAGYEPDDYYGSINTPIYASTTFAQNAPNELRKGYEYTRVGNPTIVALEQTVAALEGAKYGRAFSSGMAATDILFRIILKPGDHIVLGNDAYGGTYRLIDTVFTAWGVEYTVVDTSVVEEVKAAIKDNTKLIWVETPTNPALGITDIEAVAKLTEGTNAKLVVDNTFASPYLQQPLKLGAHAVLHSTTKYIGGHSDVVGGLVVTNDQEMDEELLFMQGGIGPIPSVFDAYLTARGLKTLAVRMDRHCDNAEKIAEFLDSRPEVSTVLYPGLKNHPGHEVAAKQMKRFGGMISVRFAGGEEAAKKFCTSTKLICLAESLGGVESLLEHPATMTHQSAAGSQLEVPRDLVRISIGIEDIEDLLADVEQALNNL
Description: as §1, with “The fractions containing the protein were checked for purity with SDS-PAGE and then pooled together. Imidazole was separated from the proteins by ultrafiltration.” left out
In vitro assays of MetB and MetC. […] Enzyme activities were measured by increase or decrease of free SH-groups using Ellman's reagent (Extinction at 412 nm) (Ellman and Lysko, 1979). […]

MetB [6] = biological target: MetB (Escherichia coli, UniProt P00935); settings: E. coli MetB; Holbrook et al. 1990; cited from earlier work
Chain of MetB (Escherichia coli, UniProt P00935) (P00935 whole entry): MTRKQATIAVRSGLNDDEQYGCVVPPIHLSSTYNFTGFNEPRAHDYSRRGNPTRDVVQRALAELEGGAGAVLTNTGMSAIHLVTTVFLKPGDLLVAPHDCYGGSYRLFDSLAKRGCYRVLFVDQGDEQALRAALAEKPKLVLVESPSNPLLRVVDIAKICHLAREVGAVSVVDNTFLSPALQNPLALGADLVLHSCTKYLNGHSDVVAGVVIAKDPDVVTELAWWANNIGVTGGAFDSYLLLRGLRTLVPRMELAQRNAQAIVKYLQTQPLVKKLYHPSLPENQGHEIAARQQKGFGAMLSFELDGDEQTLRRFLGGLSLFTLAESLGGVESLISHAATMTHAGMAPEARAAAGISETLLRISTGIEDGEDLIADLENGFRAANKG

MetB [7] = settings: read-out: MetB Km; Spinach MetB; Ravanel et al. 1995; cited from earlier work
[8] = substrate: N[C@@H](CCS)C(=O)O; experiment: purified protein, by the assay type; settings: other: C. glutamicum MetB, with O-acetyl homoserine, this study; 37.0 °C

For `N[C@@H](CCSCC[C@H](N)C(=O)O)C(=O)O` [L-homolanthionine, S-[(3S)-3-amino-3-carboxypropyl]-L-homocysteine], the “Cleavage by MetC” value (MetC [1]) is listed as “only poorly cleaved”, the Km (MetC [2]; E. coli MetC) is listed as 4540 µM and the Km (MetC [2]; E. coli cystathionase) is listed as 4500 µM.

In the case of `N[C@@H](CCSC[C@H](N)C(=O)O)C(=O)O` [L-cystathionine], the Km (MetC [1]; C. glutamicum MetC, this study) is listed as 107 µM, the “Cleavage by MetC” value (MetC [1]) is listed as “complete cleavage” and the Km (MetC [2]; E. coli MetC) is listed as 40 µM. The Km (MetC [3]) was 220 µM and the Km (MetC [4]) was 70 µM.

For `N[C@@H](CS)C(=O)O` [L-cysteine], the Km (MetB [5]) is given as 258 µM, the Km (MetB [6]) is given as 50 µM and the Km (MetB [7]) is given as 180 µM.

B1: MetB (Corynebacterium glutamicum ATCC 13032) (protein)
chain: T2 sequence (Q79VD9 1-386)
B1 showed a Km [8] of 541 µM.
